Experimental data published in the supplement of paper PMC10307832.

Legend:
Assay in all cases: relative viability (nuclei count vs DMSO), 5 days (fraction); higher = more cells survive
NCI-H520 = system: NCI-H520
Method in brief: (§1)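 Relative viability divides the nuclei count in treated wells by that in vehicle wells. Lung cancer cell lines were seeded in 1536-well plates, dosed by pin tool the next day, and fixed and stained after 5 days in one step with final 0.05% Triton X-100, 1% formaldehyde and 1 ug/ml Hoechst. Dosing was a single drug or a fixed anchor-drug dose plus five library-drug doses (not always all listed) in √10 steps, and values are medians of duplicate plates imaged at 4×.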

NCI-H1993 = system: NCI-H1993
Method in brief: as §1

SK-LU-1 = system: SK-LU-1
Method in brief: as §1

NCI-H2009 = system: NCI-H2009
Method in brief: as §1

NCI-H460 = system: NCI-H460
Method in brief: as §1

EMC-BAC-2 = system: EMC-BAC-2
Method in brief: as §1

NCI-H1793 = system: NCI-H1793
Method in brief: as §1

PC-14 = system: PC-14
Method in brief: as §1

NCI-H1944 = system: NCI-H1944
Method in brief: as §1

NCI-H1355 = system: NCI-H1355
Method in brief: as §1

NCI-H1975 = system: NCI-H1975
Method in brief: as §1

NCI-H2126 = system: NCI-H2126
Method in brief: as §1

NCI-H441 = system: NCI-H441
Method in brief: as §1

NCI-H647 = system: NCI-H647
Method in brief: as §1

NCI-H2347 = system: NCI-H2347
Method in brief: as §1

NCI-H1666 = system: NCI-H1666
Method in brief: as §1

LCLC-97TM1 = system: LCLC-97TM1
Method in brief: as §1

NCI-H1755 = system: NCI-H1755
Method in brief: as §1

ABC-1 = system: ABC-1
Method in brief: as §1

SW 1573 = system: SW 1573
Method in brief: as §1

NCI-H727 = system: NCI-H727
Method in brief: as §1

PC-3 [JPC-3] = system: PC-3 [JPC-3]
Method in brief: as §1

NCI-H2170 = system: NCI-H2170
Method in brief: as §1

O=C(O)CCCCC(CCSCc1ccccc1)SCc1ccccc1 (centres undefined) [CPI-613] + CC(=O)c1c(C)c2cnc(Nc3ccc(N4CCNCC4)cn3)nc2n(C2CCCC2)c1=O [Palbociclib] (partner 0.5 µM)
relative viability (NCI-H520; first compound 5 µM): 0.225 | relative viability (NCI-H520; first compound 15.81 µM): 0.2 | relative viability (NCI-H520; first compound 50 µM): 0.169 | relative viability (NCI-H520; first compound 158.11 µM): 0.119 | relative viability (NCI-H520; first compound 500 µM): 0.117 | relative viability (NCI-H1993; first compound 5 µM): 0.611 | relative viability (NCI-H1993; first compound 15.81 µM): 0.581 | relative viability (NCI-H1993; first compound 50 µM): 0.715 | relative viability (NCI-H1993; first compound 158.11 µM): 0.468 | relative viability (NCI-H1993; first compound 500 µM): 0.38 | relative viability (SK-LU-1; first compound 5 µM): 0.422 | relative viability (SK-LU-1; first compound 15.81 µM): 0.392 | relative viability (SK-LU-1; first compound 50 µM): 0.276 | relative viability (SK-LU-1; first compound 158.11 µM): 0.32 | relative viability (SK-LU-1; first compound 500 µM): 0.202 | relative viability (NCI-H2009; first compound 5 µM): 0.229 | relative viability (NCI-H2009; first compound 15.81 µM): 0.207 | relative viability (NCI-H2009; first compound 50 µM): 0.221 | relative viability (NCI-H2009; first compound 158.11 µM): 0.0593 | relative viability (NCI-H2009; first compound 500 µM): 0.0128 | relative viability (NCI-H460; first compound 5 µM): 0.197 | relative viability (NCI-H460; first compound 15.81 µM): 0.0984 | relative viability (NCI-H460; first compound 50 µM): 0.0912 | relative viability (NCI-H460; first compound 158.11 µM): 0.0107 | relative viability (NCI-H460; first compound 500 µM): 0.0087 | relative viability (EMC-BAC-2; first compound 5 µM): 0.524 | relative viability (EMC-BAC-2; first compound 15.81 µM): 0.506 | relative viability (EMC-BAC-2; first compound 50 µM): 0.514 | relative viability (EMC-BAC-2; first compound 158.11 µM): 0.267 | relative viability (EMC-BAC-2; first compound 500 µM): 0.265 | relative viability (NCI-H1793; first compound 5 µM): 0.269 | relative viability (NCI-H1793; first compound 15.81 µM): 0.33 | relative viability (NCI-H1793; first compound 50 µM): 0.258 | relative viability (NCI-H1793; first compound 158.11 µM): 0.112 | relative viability (NCI-H1793; first compound 500 µM): 0.0566 | relative viability (PC-14; first compound 5 µM): 0.534 | relative viability (PC-14; first compound 15.81 µM): 0.54 | relative viability (PC-14; first compound 50 µM): 0.49 | relative viability (PC-14; first compound 158.11 µM): 0.0565 | relative viability (PC-14; first compound 500 µM): 0.0114 | relative viability (NCI-H1944; first compound 5 µM): 0.331 | relative viability (NCI-H1944; first compound 15.81 µM): 0.312 | relative viability (NCI-H1944; first compound 50 µM): 0.335 | relative viability (NCI-H1944; first compound 158.11 µM): 0.259 | relative viability (NCI-H1944; first compound 500 µM): 0.26 | relative viability (NCI-H1355; first compound 5 µM): 0.429 | relative viability (NCI-H1355; first compound 15.81 µM): 0.408 | relative viability (NCI-H1355; first compound 50 µM): 0.424 | relative viability (NCI-H1355; first compound 158.11 µM): 0.407 | relative viability (NCI-H1355; first compound 500 µM): 0.105 | relative viability (NCI-H1975; first compound 5 µM): 0.638 | relative viability (NCI-H1975; first compound 15.81 µM): 0.645 | relative viability (NCI-H1975; first compound 50 µM): 0.388 | relative viability (NCI-H1975; first compound 158.11 µM): 0.562 | relative viability (NCI-H1975; first compound 500 µM): 0.0655 | relative viability (NCI-H2126; first compound 5 µM): 0.334 | relative viability (NCI-H2126; first compound 15.81 µM): 0.363 | relative viability (NCI-H2126; first compound 50 µM): 0.338 | relative viability (NCI-H2126; first compound 158.11 µM): 0.213 | relative viability (NCI-H2126; first compound 500 µM): 0.162 | relative viability (NCI-H441; first compound 5 µM): 0.222 | relative viability (NCI-H441; first compound 15.81 µM): 0.197 | relative viability (NCI-H441; first compound 50 µM): 0.18 | relative viability (NCI-H441; first compound 158.11 µM): 0.136 | relative viability (NCI-H441; first compound 500 µM): 0.0142 | relative viability (NCI-H647; first compound 5 µM): 0.341 | relative viability (NCI-H647; first compound 15.81 µM): 0.312 | relative viability (NCI-H647; first compound 50 µM): 0.316 | relative viability (NCI-H647; first compound 158.11 µM): 0.022 | relative viability (NCI-H647; first compound 500 µM): 0.0072 | relative viability (NCI-H2347; first compound 5 µM): 0.434 | relative viability (NCI-H2347; first compound 15.81 µM): 0.379 | relative viability (NCI-H2347; first compound 50 µM): 0.404 | relative viability (NCI-H2347; first compound 158.11 µM): 0.392 | relative viability (NCI-H2347; first compound 500 µM): 0.22 | relative viability (NCI-H1666; first compound 5 µM): 0.68 | relative viability (NCI-H1666; first compound 15.81 µM): 0.577 | relative viability (NCI-H1666; first compound 50 µM): 0.574 | relative viability (NCI-H1666; first compound 158.11 µM): 0.469 | relative viability (NCI-H1666; first compound 500 µM): 0.425 | relative viability (LCLC-97TM1; first compound 5 µM): 0.232 | relative viability (LCLC-97TM1; first compound 15.81 µM): 0.207 | relative viability (LCLC-97TM1; first compound 50 µM): 0.177 | relative viability (LCLC-97TM1; first compound 158.11 µM): 0.124 | relative viability (LCLC-97TM1; first compound 500 µM): 0.0897 | relative viability (NCI-H1755; first compound 5 µM): 0.513 | relative viability (NCI-H1755; first compound 15.81 µM): 0.432 | relative viability (NCI-H1755; first compound 50 µM): 0.454 | relative viability (NCI-H1755; first compound 158.11 µM): 0.448 | relative viability (NCI-H1755; first compound 500 µM): 0.393 | relative viability (ABC-1; first compound 5 µM): 0.603 | relative viability (ABC-1; first compound 15.81 µM): 0.669 | relative viability (ABC-1; first compound 50 µM): 0.639 | relative viability (ABC-1; first compound 158.11 µM): 0.415 | relative viability (ABC-1; first compound 500 µM): 0.4 | relative viability (SW 1573; first compound 5 µM): 0.336 | relative viability (SW 1573; first compound 15.81 µM): 0.579 | relative viability (SW 1573; first compound 50 µM): 0.384 | relative viability (SW 1573; first compound 158.11 µM): 0.0841 | relative viability (SW 1573; first compound 500 µM): 0.056 | relative viability (NCI-H727; first compound 5 µM): 0.673 | relative viability (NCI-H727; first compound 15.81 µM): 0.614 | relative viability (NCI-H727; first compound 50 µM): 0.566 | relative viability (NCI-H727; first compound 158.11 µM): 0.655 | relative viability (NCI-H727; first compound 500 µM): 0.634 | relative viability (PC-3 [JPC-3]; first compound 5 µM): 0.559 | relative viability (PC-3 [JPC-3]; first compound 50 µM): 0.512 | relative viability (PC-3 [JPC-3]; first compound 158.11 µM): 0.265 | relative viability (PC-3 [JPC-3]; first compound 500 µM): 0.263 | relative viability (NCI-H2170; first compound 5 µM): 0.379 | relative viability (NCI-H2170; first compound 15.81 µM): 0.415 | relative viability (NCI-H2170; first compound 50 µM): 0.382 | relative viability (NCI-H2170; first compound 158.11 µM): 0.372 | relative viability (NCI-H2170; first compound 500 µM): 0.219
